Reference: US6727264B1 (Synaptic Pharmaceutical Corporation, priority 2001, dated 2004)

molecular target: rat MCH-1 (Rattus norvegicus, UniProt P97639); assay: Radioligand binding assay at cloned rat MCH1 receptor ([3H] Compound A); design: host or cells: Peak rapid 293 (Peakr293) cells, transient calcium phosphate transfection, membranes; details: cloned rat MCH1 receptor; 0.08 nM [3H] Compound A; Peakr293 cell membranes; read-out: Ki (nM) rMCH1
Sequence (P97639 whole entry): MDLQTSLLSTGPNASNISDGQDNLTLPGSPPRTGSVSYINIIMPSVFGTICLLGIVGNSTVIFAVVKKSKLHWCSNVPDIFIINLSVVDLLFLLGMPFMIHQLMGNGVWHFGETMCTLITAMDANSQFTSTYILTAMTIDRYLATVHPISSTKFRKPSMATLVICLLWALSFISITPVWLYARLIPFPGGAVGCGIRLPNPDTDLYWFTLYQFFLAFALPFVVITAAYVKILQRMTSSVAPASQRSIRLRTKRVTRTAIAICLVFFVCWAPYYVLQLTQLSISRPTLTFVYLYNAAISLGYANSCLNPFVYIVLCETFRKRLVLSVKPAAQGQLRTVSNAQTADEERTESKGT

SMILES | Ki [nM]
CCC(=O)Nc1cccc(C2CCN(CCCCC(=O)c3cccc([N+](=O)[O-])c3)CC2)c1 [Example 552] | 24.7
O=C(CCCCN1CCC(c2cccc(NC(=O)C3CC3)c2)CC1)c1cccc([N+](=O)[O-])c1 [Example 553] | 27.5
CCC(=O)Nc1cccc(C2CCN(CCCCC(=O)c3ccccc3F)CC2)c1 [Example 554] | 70.9
CCC(=O)Nc1cccc(C2CCN(CCCCC(=O)c3cccc(F)c3)CC2)c1 [Example 555] | 50.3
CCC(=O)Nc1cccc(C2CCN(CCCCC(=O)c3ccc([N+](=O)[O-])cc3)CC2)c1 [Example 556] | 35.6
O=C(CCCCN1CCC(c2cccc(NC(=O)C3CC3)c2)CC1)c1ccc([N+](=O)[O-])cc1 [Example 557] | 25.6
O=C(CCCCN1CCC(c2cccc(NC(=O)C3CC3)c2)CC1)c1ccc(Cl)cc1 [Example 558] | 20.2
CCC(=O)Nc1cccc(C2CCN(CCCCC(=O)c3ccccc3C(F)(F)F)CC2)c1 [Example 559] | 62.3
O=C(CCCCN1CCC(c2cccc(NC(=O)C3CC3)c2)CC1)c1ccccc1C(F)(F)F [Example 560] | 55.7
CCC(=O)Nc1cccc(C2CCN(CCCCC(=O)c3ccc(Cl)cc3)CC2)c1 [Example 561] | 92.9
CCC(=O)Nc1cccc(C2CCN(CCCCC(=O)c3cccc(Cl)c3)CC2)c1 [Example 562] | 48.1
O=C(CCCCN1CCC(c2cccc(NC(=O)C3CC3)c2)CC1)c1ccccc1F [Example 563] | 50.2
O=C(CCCCN1CCC(c2cccc(NC(=O)C3CC3)c2)CC1)c1cccc(Cl)c1 [Example 564] | 28.9
O=C(CCCCN1CCC(c2cccc(NC(=O)C3CC3)c2)CC1)c1ccc(C(F)(F)F)cc1 [Example 565] | 49.2
CCC(=O)Nc1cccc(C2CCN(CCCCC(=O)c3ccccc3Cl)CC2)c1 [Example 566] | 77.8
O=C(CCCCN1CCC(c2cccc(NC(=O)C3CC3)c2)CC1)c1ccccc1Cl [Example 567] | 92.2
O=C(CCCCN1CCC(c2cccc(NC(=O)C3CC3)c2)CC1)c1cccc(C(F)(F)F)c1 [Example 568] | 68.8
Cc1ccc(C(=O)CCCN2CCC(c3cccc(N(C)C(=O)C(C)C)c3)CC2)cc1C [Example 569] | 549
CC(C)C(=O)Nc1cccc(C2CCN(C(C)CCC(=O)c3ccccc3)CC2)c1 (centres unmarked) [Example 570] | 136
CCC(=O)Nc1cccc(C2CCN(CCCCC(=O)c3cccc(C(F)(F)F)c3)CC2)c1 [Example 571] | 88.3
CC(C)C(=O)Nc1cccc(C2CCN(CCCCC(=O)N3C(=O)OC[C@H]3c3ccc(F)c(F)c3)CC2)c1 [Example 572] | 181
CC(C)C(=O)Nc1cccc(C2CCN(CCCNC(=O)N3C(=O)OC[C@H]3c3ccc(F)c(F)c3)CC2)c1 [Example 573] | 114
CC(C)C(=O)Nc1cccc(C2CCN(CCCCCN3C(=O)OC[C@@H]3c3ccc(F)c(F)c3)CC2)c1 [Example 574] | 87.1
CC(C)C(=O)Nc1cccc(C2CCN(CCCCC(=O)N3C(=O)OC[C@@H]3c3ccc(F)c(F)c3)CC2)c1 [Example 575] | 193
CC(C)C(=O)Nc1cccc(C2CCN(CCCNC(=O)N3C(=O)OC[C@@H]3c3ccc(F)c(F)c3)CC2)c1 [Example 576] | 74.3

SMILES | Ki [nM]
CC(C)C(=O)Nc1cccc(C2CCN(CCCNC(=O)N3C(=O)OC[C@@H]3c3cc(F)c(F)c(F)c3)CC2)c1 [Example 577] | 64.7
CC(C)C(=O)Nc1cccc(C2CCN(CCCNC(=O)N3C(=O)OC[C@@H]3c3cc(F)cc(F)c3)CC2)c1 [Example 578] | 98.8
CCC(=O)Nc1cccc(C2CCN(CCCSc3ccccc3)CC2)c1 [Example 579] | 131
O=C(Nc1cccc(C2CCN(CCCSc3ccccc3)CC2)c1)C1CC1 [Example 580] | 54
CC(C)C(=O)Nc1cccc(C2CCN(CCCSc3ccccc3)CC2)c1 [Example 581] | 86.4
O=C(Nc1cccc(C2CCN(CCCCCCSc3ccccc3)CC2)c1)C1CC1 [Example 582] | 58.3
CCC(=O)Nc1cccc(C2CCN(CCCCSc3ccccc3)CC2)c1 [Example 583] | 55.5
O=C(Nc1cccc(C2CCN(CCCCSc3ccccc3)CC2)c1)C1CC1 [Example 584] | 51.8
CC(C)C(=O)Nc1cccc(C2CCN(CCCCSc3ccccc3)CC2)c1 [Example 585] | 37.2
CC(C)C(=O)Nc1cccc(C2CCN(CCCCCSc3ccccc3)CC2)c1 [Example 586] | 42.9
O=C(Nc1cccc(C2CCN(CCCCCSc3ccccc3)CC2)c1)C1CC1 [Example 587] | 46.9
CCC(=O)Nc1cccc(C2CCN(CCCCCCSc3ccccc3)CC2)c1 [Example 588] | 284
CCC(=O)Nc1cccc(C2CCN(CCCCCSc3ccccc3)CC2)c1 [Example 589] | 66.6
CC(C)C(=O)Nc1cccc(C2CCN(CCC[S+]([O-])c3ccc(F)cc3)CC2)c1 (centres unmarked) [Example 590] | 157
CC(C)C(=O)Nc1cccc(C2CCN(CCC[S+]([O-])c3ccccc3Br)CC2)c1 (centres unmarked) [Example 591] | 138
CC(C)C(=O)Nc1cccc(C2CCN(CC[C@H](NS(=O)(=O)c3ccc(F)c(F)c3)c3ccccc3)CC2)c1 [Example 592] | 186
CC(C)C(=O)Nc1cccc(C2CCN(CC[C@H](NC(=O)c3sccc3Cl)c3ccccc3)CC2)c1 [Example 593] | 7.6
CC(C)C(=O)Nc1cccc(C2CCN(CC[C@H](NS(=O)(=O)c3cccc4c(N(C)C)cccc34)c3ccccc3)CC2)c1 [Example 594] | 67
Cc1ccc(S(=O)(=O)N[C@@H](CCN2CCC(c3cccc(NC(=O)C(C)C)c3)CC2)c2ccccc2)cc1 [Example 595] | 36.3
CC(C)C(=O)Nc1cccc(C2CCN(CC[C@H](NS(=O)(=O)c3cc(Cl)cc(Cl)c3O)c3ccccc3)CC2)c1 [Example 596] | 597
CC(C)C(=O)Nc1cccc(C2CCN(CC[C@H](NS(C)(=O)=O)c3ccccc3)CC2)c1 [Example 597] | 223
CC(C)C(=O)Nc1cccc(C2CCN(CC[C@H](NS(=O)(=O)c3ccc(F)cc3)c3ccccc3)CC2)c1 [Example 598] | 25.3
CC(C)C(=O)Nc1cccc(C2CCN(CC[C@H](NS(=O)(=O)c3ccc(C(C)(C)C)cc3)c3ccccc3)CC2)c1 [Example 599] | 50
CC(C)C(=O)Nc1cccc(C2CCN(CC[C@H](NS(=O)(=O)c3cc(Cl)ccc3Cl)c3ccccc3)CC2)c1 [Example 600] | 41.3
CCCS(=O)(=O)N[C@@H](CCN1CCC(c2cccc(NC(=O)C(C)C)c2)CC1)c1ccccc1 [Example 601] | 144

SMILES | Ki [nM]
Cc1noc(C)c1S(=O)(=O)N[C@@H](CCN1CCC(c2cccc(NC(=O)C(C)C)c2)CC1)c1ccccc1 [Example 602] | 44.6
COC(=O)c1sccc1S(=O)(=O)NCCCN1CCC(c2cccc(NC(=O)C(C)C)c2)CC1 [Example 603, METHYL 3-{[(3-{4-[3-(ISOBUTYRYLAMINO)PHENYL]-1-PIPERIDINYL}PROPYL)AMINO]SULFONYL}-2-THIOPHENECARBOXYLATE] | 287
CC(C)C(=O)Nc1cccc(C2CCN(CC[C@H](NC(=O)Nc3ccc(Oc4ccccc4)cc3)c3ccccc3)CC2)c1 [Example 604] | 36.8
CC(C)C(=O)Nc1cccc(C2CCN(CC[C@H](NC(=O)Nc3ccccc3)c3ccccc3)CC2)c1 [Example 605] | 94.5
CC(C)C(=O)Nc1cccc(C2CCN(CC[C@H](NC(=S)NC(C)(C)C)c3ccccc3)CC2)c1 [Example 606] | 40.4
CC(C)C(=O)Nc1cccc(C2CCN(CC[C@H](NC(=O)Nc3ccccc3F)c3ccccc3)CC2)c1 [Example 607] | 142
Cc1ccccc1NC(=S)N[C@@H](CCN1CCC(c2cccc(NC(=O)C(C)C)c2)CC1)c1ccccc1 [Example 608] | 34.9
CC(C)C(=O)Nc1cccc(C2CCN(CC[C@H](NC(=O)NCc3ccccc3)c3ccccc3)CC2)c1 [Example 609] | 35.4
CC(C)C(=O)Nc1cccc(C2CCN(CC[C@H](NC(=O)Nc3ccccc3[N+](=O)[O-])c3ccccc3)CC2)c1 [Example 610] | 530
CC(C)C(=O)Nc1cccc(C2CCN(CC[C@H](NC(=O)Nc3ccc(Cl)c(Cl)c3)c3ccccc3)CC2)c1 [Example 611] | 65.1
CSc1ccccc1NC(=O)N[C@@H](CCN1CCC(c2cccc(NC(=O)C(C)C)c2)CC1)c1ccccc1 [Example 612] | 121
CC(C)C(=O)Nc1cccc(C2CCN(CCCNC(=O)Nc3ccc(F)cc3)CC2)c1 [Example 613] | 34.9
CC(C)C(=O)Nc1cccc(C2CCN(CCCNC(=O)Nc3ccc(Cl)c(Cl)c3)CC2)c1 [Example 614] | 84.8
Cc1ccccc1NC(=S)NCCCN1CCC(c2cccc(NC(=O)C(C)C)c2)CC1 [Example 615] | 210
CC(C)C(=O)Nc1cccc(C2CCN(CCCNC(=O)NCc3ccccc3)CC2)c1 [Example 616] | 406
CCOc1ccc(NC(=O)NCCCN2CCC(c3cccc(NC(=O)C(C)C)c3)CC2)cc1 [Example 617] | 609
CC(C)C(=O)Nc1cccc(C2CCN(CCCNC(=O)Nc3ccccc3)CC2)c1 [Example 618] | 400
CSc1ccccc1NC(=O)NCCCN1CCC(c2cccc(NC(=O)C(C)C)c2)CC1 [Example 619] | 178
CC(C)C(=O)Nc1cccc(C2CCN(CCCNC(=S)NC(C)(C)C)CC2)c1 [Example 620] | 223
CC(C)C(=O)Nc1cccc(C2CCN(CCCNC(=O)Nc3ccc(Oc4ccccc4)cc3)CC2)c1 [Example 621] | 205
CC(=O)Nc1cccc(C2CCN(CCCNC(=O)C3=C(C)NC(=O)CC3c3ccc(F)cc3F)CC2)c1 (centres unmarked) [Example 622] | 162
CC(=O)Nc1cccc(C2CCN(CCCNC(=O)C3=C(C)NC(=O)CC3c3ccc(F)c(F)c3)CC2)c1 (centres unmarked) [Example 623] | 23.1
CC(C)C(=O)Nc1cccc(C2CCN(CCCCCCNC(=O)c3cnn(-c4ccc([N+](=O)[O-])cc4)c3C(F)(F)F)CC2)c1 [Example 624] | 47.8
CC(C)C(=O)Nc1cccc(C2CCN(CCCCCCNC(=O)C(c3ccccc3)c3ccccc3)CC2)c1 [Example 625] | 29.5
